Data as given in the supplement of paper PMC4862054.

Each compound was assayed on MDA-MB-453 (assay: normalised response (% of control), CellTiter-Glo; higher = more viable cells (100 = DMSO, 0 = benzethonium chloride kill control)). Conditions: incubation time: 72 h.
Method in brief: (§1)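 Each entry is the normalised signal at a single concentration within a series. The series comprised 5 concentrations in 10-fold steps over a compound-specific 10,000-fold range, placed in 384-well plates into which breast cancer cell lines were seeded as 20 µl suspension and incubated 72 h. CellTox Green (485/520 nm) fluorescence and then CellTiter-Glo luminescence were read, with signals normalised per plate to 0.1 % DMSO (100) and a positive kill control (0).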

| SMILES | normalised response [%] |
| --- | --- |
| C[C@]12CC[C@@H]3c4ccc(OC(=O)N(CCCl)CCCl)cc4CC[C@H]3[C@@H]1CC[C@@H]2O [Estramustine] (1000 nM) | 93.5 |
| Cc1ccc([N+](=O)[O-])cc1S(=O)(=O)N(C)/N=C/c1cnc2ccc(Br)cn12 [PIK-75] (1 nM) | 100 |
| Cc1ccc([N+](=O)[O-])cc1S(=O)(=O)N(C)/N=C/c1cnc2ccc(Br)cn12 [PIK-75] (10 nM) | 79.2 |
| CC(=O)c1c(C)c2cnc(Nc3ccc(N4CCNCC4)cn3)nc2n(C2CCCC2)c1=O [Palbociclib] (1 nM) | 99.2 |
| CC(=O)c1c(C)c2cnc(Nc3ccc(N4CCNCC4)cn3)nc2n(C2CCCC2)c1=O [Palbociclib] (10 nM) | 93.6 |
| CC[C@@H]1C(=O)OC[C@@H]1Cc1cncn1C [Pilocarpine] (40 nM) | 106 |
| COc1cc(F)c(F)c(Nc2ccc(I)cc2F)c1NS(=O)(=O)C1(C[C@H](O)CO)CC1 [Refametinib] (1 nM) | 87.9 |
| COc1cc(F)c(F)c(Nc2ccc(I)cc2F)c1NS(=O)(=O)C1(C[C@H](O)CO)CC1 [Refametinib] (10 nM) | 101 |
| CC(C)(C)c1cnc(CSc2cnc(NC(=O)C3CCNCC3)s2)o1 [SNS-032] (10 nM) | 99.6 |
| Cn1cnc2c(F)c(Nc3ccc(Br)cc3Cl)c(C(=O)NOCCO)cc21 [Selumetinib] (10 nM) | 96.8 |

What follows are compounds tested on SK-BR-3 in the same assay as above. Conditions: incubation time: 72 h.
Method in brief: as §1

| SMILES | normalised response [%] |
| --- | --- |
| CC1(C)CCC(CN2CCN(c3ccc(C(=O)NS(=O)(=O)c4ccc(NCC5CCOCC5)c([N+](=O)[O-])c4)c(Oc4cnc5[nH]ccc5c4)c3)CC2)=C(c2ccc(Cl)cc2)C1 [ABT-199] (1000 nM) | 107 |
| CC(=O)N(O)CCCCCNC(=O)CCC(=O)N(O)CCCCCNC(=O)CCC(=O)N(O)CCCCCN [Deferoxamine] (1000 nM) | 84.2 |
| C[C@]12CC[C@@H]3c4ccc(OC(=O)N(CCCl)CCCl)cc4CC[C@H]3[C@@H]1CC[C@@H]2O [Estramustine] (1000 nM) | 87.4 |
| Cc1ccc([N+](=O)[O-])cc1S(=O)(=O)N(C)/N=C/c1cnc2ccc(Br)cn12 [PIK-75] (1 nM) | 99.6 |
| Cc1ccc([N+](=O)[O-])cc1S(=O)(=O)N(C)/N=C/c1cnc2ccc(Br)cn12 [PIK-75] (10 nM) | 74.4 |
| CC(=O)c1c(C)c2cnc(Nc3ccc(N4CCNCC4)cn3)nc2n(C2CCCC2)c1=O [Palbociclib] (1 nM) | 86 |
| CC(=O)c1c(C)c2cnc(Nc3ccc(N4CCNCC4)cn3)nc2n(C2CCCC2)c1=O [Palbociclib] (10 nM) | 89.5 |
| CC[C@@H]1C(=O)OC[C@@H]1Cc1cncn1C [Pilocarpine] (40 nM) | 89.9 |
| COc1cc(F)c(F)c(Nc2ccc(I)cc2F)c1NS(=O)(=O)C1(C[C@H](O)CO)CC1 [Refametinib] (1 nM) | 91.2 |
| COc1cc(F)c(F)c(Nc2ccc(I)cc2F)c1NS(=O)(=O)C1(C[C@H](O)CO)CC1 [Refametinib] (10 nM) | 79.6 |
| CC(C)(C)c1cnc(CSc2cnc(NC(=O)C3CCNCC3)s2)o1 [SNS-032] (10 nM) | 95.8 |
| Cn1cnc2c(F)c(Nc3ccc(Br)cc3Cl)c(C(=O)NOCCO)cc21 [Selumetinib] (10 nM) | 90.6 |

What follows are compounds tested on HCC1937 in the same assay as above. Conditions: incubation time: 72 h.
Method in brief: as §1

| SMILES | normalised response [%] |
| --- | --- |
| CC1(C)CCC(CN2CCN(c3ccc(C(=O)NS(=O)(=O)c4ccc(NCC5CCOCC5)c([N+](=O)[O-])c4)c(Oc4cnc5[nH]ccc5c4)c3)CC2)=C(c2ccc(Cl)cc2)C1 [ABT-199] (1000 nM) | 103 |
| CC(=O)N(O)CCCCCNC(=O)CCC(=O)N(O)CCCCCNC(=O)CCC(=O)N(O)CCCCCN [Deferoxamine] (1000 nM) | 76.8 |
| C[C@]12CC[C@@H]3c4ccc(OC(=O)N(CCCl)CCCl)cc4CC[C@H]3[C@@H]1CC[C@@H]2O [Estramustine] (1000 nM) | 95.5 |
| Cc1ccc([N+](=O)[O-])cc1S(=O)(=O)N(C)/N=C/c1cnc2ccc(Br)cn12 [PIK-75] (1 nM) | 94.7 |
| Cc1ccc([N+](=O)[O-])cc1S(=O)(=O)N(C)/N=C/c1cnc2ccc(Br)cn12 [PIK-75] (10 nM) | 90.3 |
| CC(=O)c1c(C)c2cnc(Nc3ccc(N4CCNCC4)cn3)nc2n(C2CCCC2)c1=O [Palbociclib] (1 nM) | 101 |
| CC(=O)c1c(C)c2cnc(Nc3ccc(N4CCNCC4)cn3)nc2n(C2CCCC2)c1=O [Palbociclib] (10 nM) | 101 |
| CC[C@@H]1C(=O)OC[C@@H]1Cc1cncn1C [Pilocarpine] (40 nM) | 97.6 |
| COc1cc(F)c(F)c(Nc2ccc(I)cc2F)c1NS(=O)(=O)C1(C[C@H](O)CO)CC1 [Refametinib] (1 nM) | 93.6 |
| COc1cc(F)c(F)c(Nc2ccc(I)cc2F)c1NS(=O)(=O)C1(C[C@H](O)CO)CC1 [Refametinib] (10 nM) | 97.9 |
| CC(C)(C)c1cnc(CSc2cnc(NC(=O)C3CCNCC3)s2)o1 [SNS-032] (10 nM) | 97.8 |
| Cn1cnc2c(F)c(Nc3ccc(Br)cc3Cl)c(C(=O)NOCCO)cc21 [Selumetinib] (10 nM) | 97.3 |

The compounds below were run on HCC1599 in the same assay as above. Conditions: incubation time: 72 h.
Method in brief: as §1

| SMILES | normalised response [%] |
| --- | --- |
| CC1(C)CCC(CN2CCN(c3ccc(C(=O)NS(=O)(=O)c4ccc(NCC5CCOCC5)c([N+](=O)[O-])c4)c(Oc4cnc5[nH]ccc5c4)c3)CC2)=C(c2ccc(Cl)cc2)C1 [ABT-199] (1000 nM) | 105 |
| CC(=O)N(O)CCCCCNC(=O)CCC(=O)N(O)CCCCCNC(=O)CCC(=O)N(O)CCCCCN [Deferoxamine] (1000 nM) | 98.2 |
| C[C@]12CC[C@@H]3c4ccc(OC(=O)N(CCCl)CCCl)cc4CC[C@H]3[C@@H]1CC[C@@H]2O [Estramustine] (1000 nM) | 111 |
| Cc1ccc([N+](=O)[O-])cc1S(=O)(=O)N(C)/N=C/c1cnc2ccc(Br)cn12 [PIK-75] (1 nM) | 108 |
| Cc1ccc([N+](=O)[O-])cc1S(=O)(=O)N(C)/N=C/c1cnc2ccc(Br)cn12 [PIK-75] (10 nM) | 96.9 |
| CC(=O)c1c(C)c2cnc(Nc3ccc(N4CCNCC4)cn3)nc2n(C2CCCC2)c1=O [Palbociclib] (1 nM) | 96.1 |
| CC(=O)c1c(C)c2cnc(Nc3ccc(N4CCNCC4)cn3)nc2n(C2CCCC2)c1=O [Palbociclib] (10 nM) | 107 |
| CC[C@@H]1C(=O)OC[C@@H]1Cc1cncn1C [Pilocarpine] (40 nM) | 81 |
| COc1cc(F)c(F)c(Nc2ccc(I)cc2F)c1NS(=O)(=O)C1(C[C@H](O)CO)CC1 [Refametinib] (1 nM) | 99.5 |
| COc1cc(F)c(F)c(Nc2ccc(I)cc2F)c1NS(=O)(=O)C1(C[C@H](O)CO)CC1 [Refametinib] (10 nM) | 109 |
| CC(C)(C)c1cnc(CSc2cnc(NC(=O)C3CCNCC3)s2)o1 [SNS-032] (10 nM) | 107 |
| Cn1cnc2c(F)c(Nc3ccc(Br)cc3Cl)c(C(=O)NOCCO)cc21 [Selumetinib] (10 nM) | 95 |

Each compound was assayed on CAL-120 in the same assay as above. Conditions: incubation time: 72 h.
Method in brief: as §1

| SMILES | normalised response [%] |
| --- | --- |
| CC1(C)CCC(CN2CCN(c3ccc(C(=O)NS(=O)(=O)c4ccc(NCC5CCOCC5)c([N+](=O)[O-])c4)c(Oc4cnc5[nH]ccc5c4)c3)CC2)=C(c2ccc(Cl)cc2)C1 [ABT-199] (1000 nM) | 99.5 |
| CC(=O)N(O)CCCCCNC(=O)CCC(=O)N(O)CCCCCNC(=O)CCC(=O)N(O)CCCCCN [Deferoxamine] (1000 nM) | 96.1 |
| C[C@]12CC[C@@H]3c4ccc(OC(=O)N(CCCl)CCCl)cc4CC[C@H]3[C@@H]1CC[C@@H]2O [Estramustine] (1000 nM) | 99.9 |
| Cc1ccc([N+](=O)[O-])cc1S(=O)(=O)N(C)/N=C/c1cnc2ccc(Br)cn12 [PIK-75] (1 nM) | 92.4 |
| Cc1ccc([N+](=O)[O-])cc1S(=O)(=O)N(C)/N=C/c1cnc2ccc(Br)cn12 [PIK-75] (10 nM) | 86.8 |
| CC(=O)c1c(C)c2cnc(Nc3ccc(N4CCNCC4)cn3)nc2n(C2CCCC2)c1=O [Palbociclib] (1 nM) | 95 |
| CC(=O)c1c(C)c2cnc(Nc3ccc(N4CCNCC4)cn3)nc2n(C2CCCC2)c1=O [Palbociclib] (10 nM) | 95.2 |
| CC[C@@H]1C(=O)OC[C@@H]1Cc1cncn1C [Pilocarpine] (40 nM) | 94.2 |
| COc1cc(F)c(F)c(Nc2ccc(I)cc2F)c1NS(=O)(=O)C1(C[C@H](O)CO)CC1 [Refametinib] (1 nM) | 101 |
| COc1cc(F)c(F)c(Nc2ccc(I)cc2F)c1NS(=O)(=O)C1(C[C@H](O)CO)CC1 [Refametinib] (10 nM) | 99.5 |
| CC(C)(C)c1cnc(CSc2cnc(NC(=O)C3CCNCC3)s2)o1 [SNS-032] (10 nM) | 96.6 |
| Cn1cnc2c(F)c(Nc3ccc(Br)cc3Cl)c(C(=O)NOCCO)cc21 [Selumetinib] (10 nM) | 93 |

These compounds were tested on CAL-148 in the same assay as above. Conditions: incubation time: 72 h.
Method in brief: as §1

| SMILES | normalised response [%] |
| --- | --- |
| CC1(C)CCC(CN2CCN(c3ccc(C(=O)NS(=O)(=O)c4ccc(NCC5CCOCC5)c([N+](=O)[O-])c4)c(Oc4cnc5[nH]ccc5c4)c3)CC2)=C(c2ccc(Cl)cc2)C1 [ABT-199] (1000 nM) | 105 |
| CC(=O)N(O)CCCCCNC(=O)CCC(=O)N(O)CCCCCNC(=O)CCC(=O)N(O)CCCCCN [Deferoxamine] (1000 nM) | 59.6 |
| C[C@]12CC[C@@H]3c4ccc(OC(=O)N(CCCl)CCCl)cc4CC[C@H]3[C@@H]1CC[C@@H]2O [Estramustine] (1000 nM) | 78.6 |
| Cc1ccc([N+](=O)[O-])cc1S(=O)(=O)N(C)/N=C/c1cnc2ccc(Br)cn12 [PIK-75] (1 nM) | 96.4 |
| Cc1ccc([N+](=O)[O-])cc1S(=O)(=O)N(C)/N=C/c1cnc2ccc(Br)cn12 [PIK-75] (10 nM) | 90.3 |
| CC(=O)c1c(C)c2cnc(Nc3ccc(N4CCNCC4)cn3)nc2n(C2CCCC2)c1=O [Palbociclib] (1 nM) | 88.4 |
| CC(=O)c1c(C)c2cnc(Nc3ccc(N4CCNCC4)cn3)nc2n(C2CCCC2)c1=O [Palbociclib] (10 nM) | 87 |
| CC[C@@H]1C(=O)OC[C@@H]1Cc1cncn1C [Pilocarpine] (40 nM) | 96.8 |
| COc1cc(F)c(F)c(Nc2ccc(I)cc2F)c1NS(=O)(=O)C1(C[C@H](O)CO)CC1 [Refametinib] (1 nM) | 101 |
| COc1cc(F)c(F)c(Nc2ccc(I)cc2F)c1NS(=O)(=O)C1(C[C@H](O)CO)CC1 [Refametinib] (10 nM) | 86.9 |
| CC(C)(C)c1cnc(CSc2cnc(NC(=O)C3CCNCC3)s2)o1 [SNS-032] (10 nM) | 98.5 |
| Cn1cnc2c(F)c(Nc3ccc(Br)cc3Cl)c(C(=O)NOCCO)cc21 [Selumetinib] (10 nM) | 90.6 |
